According to patent EP3452027B1, “USE OF […] TREAT SEA LICE” (priority 2016, dated 2017):
≈ marks a conversion by molar mass, not a printed value. Like-named read-outs stand apart in the source and are kept apart here.

Tests used:
[1] = tested on: fish embryos; conditions: 100µM bergapten; cited from earlier work
[2] = tested on: Argulus; conditions: for Argulus detachment from goldfish and koi carp: after two hours
[3] = tested on: Lepeophtheirus salmonis sea lice; experiment: whole plant or invertebrate; conditions: 24 h
[4] = tested on: Lepeophtheirus salmonis sea lice

COc1c2ccoc2cc2oc(=O)ccc12 [bergapten, 5-methoxypsoralen]
fish embryos killed [1]: one third | remaining viable embryos with defects in anterior-posterior patterning [1]: half

C=C(C)[C@@H]1CCC2=CC(=O)C[C@@H](C)[C@]2(C)C1 [nootkatone]
Argulus detachment from goldfish and koi carp ([2]; 2ppm nootkatone in tap water): no parasites could be seen | Argulus detachment from goldfish and koi carp ([2]; 6ppm nootkatone in tap water): no parasites could be seen | mortality of Argulus ([2]; in vivo): 100% | EC50 ([3]; read-out: Females EC50): 9.17 µg/mL (≈ 42 µM) | EC90 ([3]; read-out: Females EC90, adult female (pre-ovigerous) L. salmonis, 24 hours post exposure): 13.4 µg/mL (≈ 61.5 µM) | LC50 ([3]; read-out: Females LC50): 9.69 µg/mL (≈ 44.4 µM) | LC50 ([3]; read-out: LC50 for the total sea lice population (dose that would kill 50% of the total population)): 13.5 µg/mL (≈ 62 µM) | EC50 ([3]; read-out: Males EC50): 11.5 µg/mL (≈ 52.9 µM) | EC90 ([3]; read-out: Males EC90, adult male L. salmonis, 24 hours post exposure): 24.3 µg/mL (≈ 111 µM) | LC50 ([3]; read-out: Males LC50): 16.4 µg/mL (≈ 75.1 µM) | concentrations at which no viable sea lice were observed ([4]; 24 hours post-exposure, microscopic observation): ≥ 38 mg/L | Males EC90 ([4]; adult male L. salmonis, 24 hours post exposure): 24.27 µg/mL | Females LC50 ([4]; female, Lepeophtheirus salmonis (sea louse), in vivo): 9.70 µg/mL | Males LC50 ([4]; male, Lepeophtheirus salmonis (sea louse), in vivo): 16.40 µg/mL
